Data on 16 molecules can be found in PubChem BioAssay (NCI).

Values joined by “and” are separate entries in the source; they are usually repeats but may differ in a detail not shown here. Identical values can stand only once.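 Five compound concentrations were applied to cells in 96-well plates for 48 hours; endpoints were derived by simple linear interpolation of the resulting dose-response curve. GI50: concentration for 50% inhibition of growth. TGI is the concentration that stops growth completely.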

One assay concerns SK-MEL-28 melanoma. The assay can be described thus: growth of human tumour cells (NCI), 48 h.
Take `C=CC(=O)Nc1cccc(Oc2nc(Nc3ccc(N4CCN(C)CC4)cc3)nc3ccsc23)c1`: the GI50 is 1.87 µM and 1.89 µM; the TGI was 3.49 µM and 3.71 µM.
Consider `OCc1ccc(N2CCCC2c2ccccc2)cc1Cl` (stereo not drawn), for which the GI50 is 8.16 µM and the TGI was 24.6 µM.
Consider `COC1C=COC2(C)Oc3c(C)c(O)c4c(c3C2=O)/C(=N/C2CCC(O)OC2C)C=C(NC(=O)/C(C)=C\C(=O)C2CC2C(O)C(C)C(O)C(C)C(OC(C)=O)C1C)C4=O` (stereo not drawn), for which the TGI is 4.32 µM.
With `CC(=O)/C=C/c1cn(C(=O)OC(C)(C)C)c2ccc(Br)cc12`, the GI50 was 25.9 µM and the TGI was over 68.1 µM.
The corresponding values for `CCOc1ccccc1C(=O)N1CCN(c2cc(Cl)cc(Cl)c2)CC1` are 3.55 µM and 22.2 µM.
`NC(CSC1c2ccccc2-c2ccccc21)C(=O)O` (stereo not drawn) came in with a TGI of over 100 µM.
For `Cc1cc(S(=O)(=O)/N=C(/N)Nc2ccccc2O)c(SCc2ccccc2)cc1Cl`, the GI50 is 18.6 µM and the TGI was determined as 43.9 µM.
For `COc1cc2c(c(OC)c1OC)-c1ccc(SC)c(=O)cc1C(NC(=O)c1ccccc1)CC2` (stereo not drawn), the TGI was over 63.1 µM.
Take `O=C1CCC(N2Cc3cc(CNC(=O)C(F)(F)c4ccc(Cl)cc4)ccc3C2=O)C(=O)N1` (stereo not drawn): the GI50 is over 100 µM and the TGI is over 100 µM.

The subject of a further assay is SK-MEL-5 melanoma. The assay can be described thus: growth of human tumour cells (NCI), 48 h.
On to `O=[N+]([O-])c1ccc(C=Cc2ccccc2)cc1.[C-]#[O+].[C-]#[O+].[C-]#[O+].[Cr]`, for which the GI50 is 4.68 µM and the TGI came out at 29.2 µM.
Take `OCC1OC(n2cnc3c(N/N=C\c4ccccn4)ncnc32)C(O)C1O` (stereo not drawn): the GI50 is 0.398 µM and the TGI stood at 2.29 µM.
As for `COc1cccc(OC(=O)c2ccc(C(F)(F)F)nc2Nc2cc(Cl)ccc2C)c1`, the GI50 was 2.63 µM and the TGI turned out to be 12.5 µM.
The corresponding values for `c1cnn2ncc(-c3ccnc(NCCCN4CCOCC4)n3)c2c1` are 3.63 µM and 9.7 µM.
Turning to `O=C(Nc1ccc(OCc2nnc(-c3ccc(Cl)cc3)o2)c(F)c1)Nc1ccc(Cl)c(C(F)(F)F)c1`, the GI50 is 2.01 µM and the TGI came out at 4.42 µM.
The corresponding values for `COc1ccc2c(c1)N(CCO)C1=C(C(=O)OC1)C2c1cccc(F)c1` (stereo not drawn) are 0.456 µM and over 11.4 µM.
For the molecule `C/C(=C\c1ccc2ccccc2c1)[N+](=O)[O-]`, the GI50 is 1.79 µM and the TGI came out at 3.87 µM.
Consider `C=CC(=O)Nc1cccc(Oc2nc(Nc3ccc(N4CCN(C)CC4)cc3)nc3ccsc23)c1`, for which the GI50 is 1.64 µM and 1.75 µM; the TGI is 3.05 µM and 3.16 µM.
`OCc1ccc(N2CCCC2c2ccccc2)cc1Cl` (stereo not drawn): the GI50 is 3.33 µM and the TGI turned out to be 9.36 µM.
The molecule `COC1C=COC2(C)Oc3c(C)c(O)c4c(c3C2=O)/C(=N/C2CCC(O)OC2C)C=C(NC(=O)/C(C)=C\C(=O)C2CC2C(O)C(C)C(O)C(C)C(OC(C)=O)C1C)C4=O` (stereo not drawn) gave a TGI of 4.97 µM.
On to `CC(=O)/C=C/c1cn(C(=O)OC(C)(C)C)c2ccc(Br)cc12`, for which the GI50 was 13.6 µM and the TGI was 32.9 µM.
The corresponding values for `CCOc1ccccc1C(=O)N1CCN(c2cc(Cl)cc(Cl)c2)CC1` are 0.0345 µM and 0.177 µM.
Take `NC(CSC1c2ccccc2-c2ccccc21)C(=O)O` (stereo not drawn): the TGI was over 100 µM.
In the case of `Cc1cc(S(=O)(=O)/N=C(/N)Nc2ccccc2O)c(SCc2ccccc2)cc1Cl`, the GI50 was 14.6 µM and the TGI was determined as 30.5 µM.
Regarding `COc1cc2c(c(OC)c1OC)-c1ccc(SC)c(=O)cc1C(NC(=O)c1ccccc1)CC2` (stereo not drawn), the TGI was under 0.01 µM.
With `O=C1CCC(N2Cc3cc(CNC(=O)C(F)(F)c4ccc(Cl)cc4)ccc3C2=O)C(=O)N1` (stereo not drawn), the GI50 is 41.6 µM and the TGI is over 100 µM.

The subject of another assay is SN12C renal. The assay can be described thus: growth of human tumour cells (NCI), 48 h.
`O=[N+]([O-])c1ccc(C=Cc2ccccc2)cc1.[C-]#[O+].[C-]#[O+].[C-]#[O+].[Cr]`: the GI50 is 10.1 µM and the TGI was over 100 µM.
`OCC1OC(n2cnc3c(N/N=C\c4ccccn4)ncnc32)C(O)C1O` (stereo not drawn): the GI50 was 0.107 µM and the TGI came to 7.48 µM.
The corresponding values for `COc1cccc(OC(=O)c2ccc(C(F)(F)F)nc2Nc2cc(Cl)ccc2C)c1` are 29.2 µM and over 100 µM.
The corresponding values for `c1cnn2ncc(-c3ccnc(NCCCN4CCOCC4)n3)c2c1` are 8.2 µM and over 25 µM.
The corresponding values for `O=C(Nc1ccc(OCc2nnc(-c3ccc(Cl)cc3)o2)c(F)c1)Nc1ccc(Cl)c(C(F)(F)F)c1` are 2.02 µM and 7.91 µM.
Turning to `COc1ccc2c(c1)N(CCO)C1=C(C(=O)OC1)C2c1cccc(F)c1` (stereo not drawn), the GI50 was 0.776 µM and the TGI is over 50 µM.
`C/C(=C\c1ccc2ccccc2c1)[N+](=O)[O-]`: the GI50 was 1.74 µM and the TGI amounted to 3.23 µM.
In the case of `C=CC(=O)Nc1cccc(Oc2nc(Nc3ccc(N4CCN(C)CC4)cc3)nc3ccsc23)c1`, the GI50 is 1.58 µM and 1.61 µM; the TGI was 4.35 µM and 4.61 µM.
Turning to `OCc1ccc(N2CCCC2c2ccccc2)cc1Cl` (stereo not drawn), the GI50 is 8.22 µM and the TGI was found to be 21.7 µM.
`COC1C=COC2(C)Oc3c(C)c(O)c4c(c3C2=O)/C(=N/C2CCC(O)OC2C)C=C(NC(=O)/C(C)=C\C(=O)C2CC2C(O)C(C)C(O)C(C)C(OC(C)=O)C1C)C4=O` (stereo not drawn): the TGI turned out to be 3.24 µM.
As for `CC(=O)/C=C/c1cn(C(=O)OC(C)(C)C)c2ccc(Br)cc12`, the GI50 is 13.8 µM and the TGI came out at 36.4 µM.
As to `CCOc1ccccc1C(=O)N1CCN(c2cc(Cl)cc(Cl)c2)CC1`, the GI50 is 0.0493 µM and the TGI amounted to 14.7 µM.
Take `NC(CSC1c2ccccc2-c2ccccc21)C(=O)O` (stereo not drawn): the TGI was over 100 µM.
As for `Cc1cc(S(=O)(=O)/N=C(/N)Nc2ccccc2O)c(SCc2ccccc2)cc1Cl`, the GI50 is 14.3 µM and the TGI was determined as 30.4 µM.
For `COc1cc2c(c(OC)c1OC)-c1ccc(SC)c(=O)cc1C(NC(=O)c1ccccc1)CC2` (stereo not drawn), the TGI was found to be 52.6 µM.
Take `O=C1CCC(N2Cc3cc(CNC(=O)C(F)(F)c4ccc(Cl)cc4)ccc3C2=O)C(=O)N1` (stereo not drawn): the GI50 was over 100 µM and the TGI was over 100 µM.
